According to US7998965B2, “Glutamate aggrecanase inhibitors” (Wyeth LLC, priority 2005, dated 2011):
Read-outs that look alike come from different tables or passages of the source.

How the values were obtained:
[1] = target: T1, purified recombinant human Aggrecanase-2 (Ag2t-Phe628-Strep) (Homo sapiens, UniProt Q9UNA0); assay: In vitro fluorescence screen for Aggrecanase-2 inhibitors; format: biochemical; conditions: for IC50: read-out: Agg 2 IC50; for Ki: read-out: Ki Agg2
T1 construct: the form used is denoted as Ag2t-Phe628-Strep (MW=41,737)
T1 sequence (Q9UNA0 262-628): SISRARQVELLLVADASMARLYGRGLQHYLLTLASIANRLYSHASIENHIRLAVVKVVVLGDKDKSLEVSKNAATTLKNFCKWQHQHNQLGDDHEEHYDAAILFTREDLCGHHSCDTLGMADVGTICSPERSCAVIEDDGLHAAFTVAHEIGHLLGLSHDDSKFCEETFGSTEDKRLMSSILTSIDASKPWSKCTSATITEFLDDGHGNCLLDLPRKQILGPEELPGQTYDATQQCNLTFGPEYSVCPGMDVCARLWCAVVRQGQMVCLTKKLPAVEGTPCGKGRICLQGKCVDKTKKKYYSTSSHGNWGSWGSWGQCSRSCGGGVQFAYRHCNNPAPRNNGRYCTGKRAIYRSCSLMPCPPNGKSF

[2] = target: T2, purified recombinant human Aggrecanase-1 (rAgg1) (Homo sapiens, UniProt O75173); assay: In vitro fluorescence screen for Aggrecanase-1 inhibitors; format: biochemical; set-up: Agg1 % at concentration: scale not given here; conditions: Table 3; for IC50: read-out: Agg1 IC50; for Ki: read-out: Ki Agg1
T2 sequence (O75173 213-837): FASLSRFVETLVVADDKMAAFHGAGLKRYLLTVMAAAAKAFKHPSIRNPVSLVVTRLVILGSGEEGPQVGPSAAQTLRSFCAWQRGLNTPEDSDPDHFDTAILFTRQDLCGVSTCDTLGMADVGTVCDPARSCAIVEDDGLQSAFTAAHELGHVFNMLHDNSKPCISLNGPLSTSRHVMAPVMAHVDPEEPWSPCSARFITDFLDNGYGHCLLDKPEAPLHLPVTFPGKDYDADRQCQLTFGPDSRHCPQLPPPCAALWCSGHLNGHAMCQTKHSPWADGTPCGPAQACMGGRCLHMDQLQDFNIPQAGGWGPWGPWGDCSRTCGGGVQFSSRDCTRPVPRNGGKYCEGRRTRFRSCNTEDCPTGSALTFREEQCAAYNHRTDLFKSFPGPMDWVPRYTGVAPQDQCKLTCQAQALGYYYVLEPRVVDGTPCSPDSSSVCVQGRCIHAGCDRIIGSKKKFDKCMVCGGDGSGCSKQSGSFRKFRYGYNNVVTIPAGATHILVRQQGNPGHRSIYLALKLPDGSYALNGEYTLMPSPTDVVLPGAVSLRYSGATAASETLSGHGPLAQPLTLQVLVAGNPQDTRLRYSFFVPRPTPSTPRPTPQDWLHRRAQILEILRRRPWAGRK

[3] = read-out: Agg 2 % at concentration

| Compound | IC50 ([1]; Table 3) [nM] | IC50 [2] [nM] | also measured |
| --- | --- | --- | --- |
| CC(C)(Cc1ccccc1)NC(=O)[C@H](CCC(=O)O)NC(=O)c1ccc(-c2cccnc2)s1 [N-(1,1-dimethyl-2-phenylethyl)-N^2-[(5-pyridin-3-yl-2-thienyl)carbonyl]-L-α-glutamine] | 7200 | – | Agg1 % at concentration ([2]; at 70 (nM)): 57% 70 |
| CC(C)(Cc1ccccc1)NC(=O)[C@H](CCC(=O)O)NC(=O)c1ccc(-c2ccncc2)s1 [N-(1,1-dimethyl-2-phenylethyl)-N^2-[(5-pyridin-4-yl-2-thienyl)carbonyl]-L-α-glutamine] | 3300 | < 30 | – |
| CC(C)(Cc1ccccc1)NC(=O)[C@H](CCC(=O)O)NC(=O)c1ccc(-c2ccccc2)nc1 [N-(1,1-dimethyl-2-phenylethyl)-N^2-[(6-phenylpyridin-3-yl)carbonyl]-L-α-glutamine] | 700 | 100 | – |
| COc1cccc(-c2ccc(C(=O)N[C@@H](CCC(=O)O)C(=O)NC(C)(C)Cc3ccccc3)s2)c1 [N-(1,1-dimethyl-2-phenylethyl)-N^2-{[5-(3-methoxyphenyl)-2-thienyl]carbonyl}-L-α-glutamine] | 70 to 200 | < 30 | Ki ([1]; Table 3): 151 nM; Ki [2]: < 3 nM |
| CC(C)(Cc1ccc(Cl)cc1)NC(=O)[C@H](CCC(=O)O)NC(=O)c1ccc(-c2ccccc2)o1 [N-[2-(4-chlorophenyl)-1,1-dimethylethyl]-N^2-(5-phenyl-2-furoyl)-L-α-glutamine] | – | – | Agg 2 % at concentration ([1]; Table 3, at 50000 (nM)): 50%; Agg1 % at concentration ([2]; at 16700 (nM)): 60% |
| CC(C)(Cc1ccc(Cl)cc1)NC(=O)[C@H](CCC(=O)O)NC(=O)c1cccc(-c2cccs2)c1 [N-[2-(4-chlorophenyl)-1,1-dimethylethyl]-N^2-[3-(2-thienyl)benzoyl]-L-α-glutamine] | – | – | Agg 2 % at concentration ([1]; Table 3, at 25000 (nM)): 10%; Agg1 % at concentration ([2]; at 25000 (nM)): 16% |
| CC(C)(Cc1ccc(Cl)cc1)NC(=O)[C@H](CCC(=O)O)NC(=O)c1ccc(-c2nccs2)cc1 [N-[2-(4-chlorophenyl)-1,1-dimethylethyl]-N^2-[4-(1,3-thiazol-2-yl)benzoyl]-L-α-glutamine] | – | 1200 | inhibition at 2.5 µM [1, 3]: 50% |
| CC(C)(Cc1ccc(Cl)cc1)NC(=O)[C@H](CCC(=O)O)NC(=O)c1ccc(-c2ccc3c(c2)OCC3)cc1 [N-[2-(4-chlorophenyl)-1,1-dimethylethyl]-N^2-[4-(2,3-dihydro-1-benzofuran-6-yl)benzoyl]-L-α-glutamine] | 90 to 270 | – | Agg1 % at concentration ([2]; at 200 (nM)): 65% |
| CC(C)(Cc1ccc(Cl)cc1)NC(=O)[C@H](CCC(=O)O)NC(=O)c1ccc(-c2ccc(Cl)s2)cc1 [N-[2-(4-chlorophenyl)-1,1-dimethylethyl]-N^2-[4-(5-chloro-2-thienyl)benzoyl]-L-α-glutamine] | 70 to 200 | < 30 | Ki ([1]; Table 3): 51 nM; Ki [2]: 5.4 nM |
| CC(C)(Cc1ccc(Cl)cc1)NC(=O)[C@H](CCC(=O)O)NC(=O)c1ccc(-c2ccc(C=O)s2)cc1 [N-[2-(4-chlorophenyl)-1,1-dimethylethyl]-N^2-[4-(5-formyl-2-thienyl)benzoyl]-L-α-glutamine] | 900 | < 30 | – |
| CC(C)(Cc1ccc(Cl)cc1)NC(=O)[C@H](CCC(=O)O)NC(=O)c1sccc1-c1ccccc1 [N-[2-(4-chlorophenyl)-1,1-dimethylethyl]-N^2-[(3-phenyl-2-thienyl)carbonyl]-L-α-glutamine] | > 100000 | > 25000 | – |
| CC(C)(Cc1ccc(Cl)cc1)NC(=O)[C@H](CCC(=O)O)NC(=O)c1ccc(-c2ccncc2)s1 [N-[2-(4-chlorophenyl)-1,1-dimethylethyl]-N^2-[(5-pyridin-4-yl-2-thienyl)carbonyl]-L-α-glutamine] | 3400 | 40 | – |
| CC(C)(Cc1ccc(Cl)cc1)NC(=O)[C@H](CCC(=O)O)NC(=O)c1ccc(-c2ccc(Cl)cc2)s1 [N-[2-(4-chlorophenyl)-1,1-dimethylethyl]-N^2-{[5-(4-chlorophenyl)-2-thienyl]carbonyl}-L-α-glutamine] | > 300 | < 30 | – |
| CC(C)(Cc1ccc(Cl)cc1)NC(=O)[C@H](CCC(=O)O)NC(=O)c1ccc(-c2ccc(F)cc2)s1 [N-[2-(4-chlorophenyl)-1,1-dimethylethyl]-N^2-{[5-(4-fluorophenyl)-2-thienyl]carbonyl}-L-α-glutamine] | 30 to 100 | < 30 | Ki ([1]; Table 3): 87 nM; Ki [2]: < 3 nM |
| CC(C)(Cc1ccc(Cl)cc1)NC(=O)[C@H](CCC(=O)O)NC(=O)c1ccc(-c2ccc(Cl)s2)nc1 [N-[2-(4-chlorophenyl)-1,1-dimethylethyl]-N^2-{[6-(5-chloro-2-thienyl)pyridin-3-yl]carbonyl}-L-α-glutamine] | 100 to 300 | 20 to 70 | Ki ([1]; Table 3): 526 nM; Ki [2]: 40.6 nM |
| CC(C)(Cc1ccc(F)cc1)NC(=O)[C@H](CCC(=O)O)NC(=O)c1ccc(-c2ccccc2)s1 [N-[2-(4-fluorophenyl)-1,1-dimethylethyl]-N^2-[(5-phenyl-2-thienyl)carbonyl]-L-α-glutamine] | 60 to 200 | < 30 | Ki ([1]; Table 3): 79 nM; Ki [2]: 3.8 nM |
| CC(C)(Cc1ccc(F)cc1)NC(=O)[C@H](CCC(=O)O)NC(=O)c1ccc(-c2ccccc2)nc1 [N-[2-(4-fluorophenyl)-1,1-dimethylethyl]-N^2-[(6-phenylpyridin-3-yl)carbonyl]-L-α-glutamine] | 1000 | 50 | – |
| COc1cccc(-c2ccc(C(=O)N[C@@H](CCC(=O)O)C(=O)NC(C)(C)Cc3ccc(F)cc3)s2)c1 [N-[2-(4-fluorophenyl)-1,1-dimethylethyl]-N^2-{[5-(3-methoxyphenyl)-2-thienyl]carbonyl}-L-α-glutamine] | 100 to 300 | < 30 | Ki ([1]; Table 3): 143 nM; Ki [2]: 6.2 nM |
| COc1cccc(-c2ccc(C(=O)N[C@@H](CCC(=O)O)C(=O)NC(C)(C)Cc3ccc(F)cc3)cn2)c1 [N-[2-(4-fluorophenyl)-1,1-dimethylethyl]-N^2-{[6-(3-methoxyphenyl)pyridin-3-yl]carbonyl}-L-α-glutamine] | 5200 | 140 | – |
| CC(C)(Cc1ccccc1)NC(=O)[C@H](CCC(=O)O)NC(=O)c1ccc(-c2cccs2)s1 [N^2-(2,2′-bithien-5-ylcarbonyl)-N-(1,1-dimethyl-2-phenylethyl)-L-α-glutamine] | 200 to 600 | < 30 | – |
| CC(C)(Cc1ccc(Cl)cc1)NC(=O)[C@H](CCC(=O)O)NC(=O)c1ccc(-c2cccs2)s1 [N^2-(2,2′-bithien-5-ylcarbonyl)-N-[2-(4-chlorophenyl)-1,1-dimethylethyl]-L-α-glutamine] | 600 to 1800 | < 30 | Ki ([1]; Table 3): 1150 nM; Ki [2]: 86 nM |
| CC(C)(Cc1ccc(F)cc1)NC(=O)[C@H](CCC(=O)O)NC(=O)c1ccc(Br)cc1 [N^2-(4-bromobenzoyl)-N-[2-(4-fluorophenyl)-1,1-dimethylethyl]-L-α-glutamine] | 7400 | 1040 | – |
| CC(C)(Cc1ccccc1)NC(=O)[C@H](CCC(=O)O)NC(=O)c1cccc(-c2ccc(Cl)s2)c1 [N^2-[3-(5-chloro-2-thienyl)benzoyl]-N-(1,1-dimethyl-2-phenylethyl)-L-α-glutamine] | > 8300 | > 900 | – |
| CC(C)(Cc1ccccc1)NC(=O)[C@H](CCC(=O)O)NC(=O)c1ccc(-c2ccc3c(c2)OCC3)cc1 [N^2-[4-(2,3-dihydro-1-benzofuran-6-yl)benzoyl]-N-(1,1-dimethyl-2-phenylethyl)-L-α-glutamine] | 270 to 800 | 70 | – |
| CC(=O)c1ccc(-c2ccc(C(=O)N[C@@H](CCC(=O)O)C(=O)NC(C)(C)Cc3ccccc3)cc2)s1 [N^2-[4-(5-acetyl-2-thienyl)benzoyl]-N-(1,1-dimethyl-2-phenylethyl)-L-α-glutamine] | – | 300 to 900 | inhibition at 2.5 µM ([1]; Table 3, at 2500 (nM), read-out: Agg 2 % at concentration): 5% |
| CC(=O)c1ccc(-c2ccc(C(=O)N[C@@H](CCC(=O)O)C(=O)NC(C)(C)Cc3ccc(Cl)cc3)cc2)s1 [N^2-[4-(5-acetyl-2-thienyl)benzoyl]-N-[2-(4-chlorophenyl)-1,1-dimethylethyl]-L-α-glutamine] | – | 2400 | inhibition at 7.4 µM [1, 3]: 50% |
| CC(C)(Cc1ccc(Cl)cc1)NC(=O)[C@H](CCC(=O)O)NC(=O)c1ccc(-c2ccc(Br)s2)cc1 [N^2-[4-(5-bromo-2-thienyl)benzoyl]-N-[2-(4-chlorophenyl)-1,1-dimethylethyl]-L-α-glutamine] | 30 to 100 | < 30 | Ki ([1]; Table 3): 69 nM; Ki [2]: 8.3 nM |
